# Reference: patent EP0398425A1, “Antirhinoviral piperidinyl, pyrrolidinyl and piperazinyl alkylphenol ethers” (JANSSEN PHARMACEUTICA N.V., priority 1989, dated 1990)
# Assays:
# [1] = system: Human Rhinovirus serotypes HRV-42,-45,-14,-70,-72 and -86; assay: Picornavirus Minimal Inhibitory Concentration Test (cytopathic effect reduction assay), second panel of rhinoviruses; assay type: cell-based; conditions: Human rhinovirus sp., HRV42; medium value of the IC50-values of all serotypes of the second panel; Ohio Hela cells, 3 to 5 days at 33°C; IC50 = concentration protecting 50% of the cells from cytopathic effects; read-out: Med₂
# Method: (§1) The Minimal Inhibitory Concentration of the compounds of the present invention against the Human Rhinovirus strains (HRV) -2,-9,-14,-15,-29,-39,-41,-42,-45,-51, -59, -63,-70,-72,-85,-86 and -89 was determined by a standard cytopathic effect reduction assay as follows. To each of the ninty six (96) wells of a microtiter 96 well tissue culture plate there was added 60 µl of a Ohio Hela cell maintenance medium [Eagle's Basal medium supplemented with 5% Foetal Calf Serum (FCS)]. To two wells there was added 60 µl of an appropriate starting dilution of a compound of formula (I) and two-fold dilutions were made to cover a wide range of compound concentrations. Subsequently there were added 120 µl of an infectious solution of virus in Eagle's Basal Medium with 2% Hepes buffer, 2% FCS and 30 mM MgCl₂ to all wells except cell and compound controls. Said infectious virus solution having a TCID₅₀-value (Tissue Culture Infectious Dose) of about 100.
# (§2) The TCID₅₀-value is the dose of viruses which initiates a cytopathic effect in 50% of the inoculated cells. 150 µl of the thus obtained virus-compound mixtures were then transferred to microtitre plates with subconfluent Ohio Hela Cells, grown in 100 µl of maintenance medium. Appropriate virus controls, cell controls and compound controls were included in each test. Plates were incubated for 3 to 5 days at 33°C in 5% CO₂ atmosphere. […] The IC₅₀-value for each virus-compound series was taken as the concentration in ng/ml that protected 50% of the cells from cytopathic effects with respect to the untreated controls. In the standard test procedure, the compounds were tested against two panels of rhinoviruses, a first panel consisting of serotypes HRV- 2,-29,-39,-85,-9,-15,-51,-59,-63,-89,-41 and the other panel consisting of HRV-42,-45,-14,-70,-72 and -86.
# (§3) The IC₅₀-value for each rhinovirus serotype was determined, and the efficacy of each compound was determined in terms of the Med₁-value and Med₂-value, which is the medium value of the IC₅₀-values of all serotypes from the first and second panel respectively.
# [2] = system: Human Rhinovirus serotypes HRV- 2,-29,-39,-85,-9,-15,-51,-59,-63,-89,-41; assay: Picornavirus Minimal Inhibitory Concentration Test (cytopathic effect reduction assay), first panel of rhinoviruses; assay type: cell-based; conditions: Human rhinovirus sp.; medium value of the IC50-values of all serotypes of the first panel; Ohio Hela cells, 3 to 5 days at 33°C; IC50 = concentration protecting 50% of the cells from cytopathic effects; read-out: Med₁
# Method: as §1, §2, §3
Structure (SMILES),IC50 [1] [µg/mL],IC50 [2] [µg/mL]
CCOC(=O)c1ccc(OCCC2CCN(C3=NS(=O)(=O)c4ccccc43)CC2)cc1 [Compound 14],0.344,0.053
"CCOC(=O)c1ccc(OCCC2CCN(c3nnc(C)s3)CC2)cc1 [Compound 13, ethyl 4-[2-[1-(5-methyl-1,3,4-thiadiazol-2-yl)-4-piperidinyl]ethoxy]benzoate]",0.035,0.01
"CCOC(=O)c1ccc(OCCC2CCN(c3nsc4ccccc34)CC2)cc1 [Compound 19, ethyl 4-[2-[1-(1,2-benzisothiazol-3-yl)-4-piperidinyl]ethoxy]benzoate]",0.25,0.144
CCOC(=O)c1ccc(OCCC2CCN(c3nc(C(=O)OCC)cs3)CC2)cc1 [Compound 6],0.4,0.031
CCOC(=O)c1ccc(OCCCN2CCN(c3nnc(Br)s3)CC2)cc1 [Compound 29],0.037,0.175
CCOC(=O)c1ccc(OCCC2CCN(c3nnc(Br)s3)CC2)cc1 [Compound 17],0.0705,0.006
CCOC(=O)c1ccc(OCCN2CCN(c3nnc(Br)s3)CC2)cc1 [Compound 27],0.011,0.044

# Further lines, results first:
IC50 [1] [µg/mL],IC50 [2] [µg/mL],Structure (SMILES)
0.009,0.088,"CCOC(=O)c1ccc(OCCN2CCN(c3nc(C(=O)OCC)cs3)CC2)cc1 [Compound 34, ethyl 2-[4-[2-[4-(ethoxycarbonyl)phenoxy]ethyl]-1-piperazinyl]-4-thiazolecarboxylate]"
0.244,0.011,CCc1noc(-c2ccc(OCCC3CCN(c4nnc(Br)s4)CC3)cc2)n1 [Compound 61]
0.097,0.156,CCOC(=O)c1ccc(OCCCN2CCN(c3nc(C(=O)OCC)cs3)CC2)cc1 [Compound 49]
0.172,0.376,CCOC(=O)c1ccc(OCCCN2CCN(c3nncs3)CC2)cc1 [Compound 35]
0.027,0.312,"CCOC(=O)c1ccc(OCCN2CCN(c3nc4ccccc4s3)CC2)cc1 [Compound 46, ethyl 4-[2-[4-(2-benzothiazolyl)-1-piperazinyl]ethoxy]benzoate]"
